The results in this text go back to patent US12697366B2, “Thermogenic compositions and methods” (Ohio State Innovation Foundation, priority 2016, dated 2026).

This assay concerns 3T3-L1 adipocytes. Put plainly: Thermogenic gene expression in 3T3-L1 adipocytes (TaqMan / RT-PCR). In kind it is cell-based, mouse. As to the method: FIGS. 9A to 9D show DRG neurons (500 neurons per well) cultured in DRG culture medium only, or DRG culture medium with NT-3 (1 ng/mL), with NGF (10 ng/mL), with WT secretome (1/1, v/v), or with Aldh1a1^−/− secretome (1/1, v/v) for 24 hours. WT and Aldh1a1^−/− adipocytes differentiated for 5 days. Secretome is the media collected from these cells for 24 h. Neurite outgrowth parameters were assayed using the Thermo Scientific™ ArrayScan™ XTI Live High Content microscope and analyzed with the Neuronal Profiling Algorithm (ThermoFisher). Nine independent experiments were performed using DRG from three mice. Each DRG batch was analyzed in triplicate. Data are shown as mean±SD obtained with one DRG batch. Asterisks indicate P<0.05 between different groups; Mann-Whitney U test. FIG. 9A: Representative images show ~25% of area used for the automatic quantification of neuronal parameters in FIG. 3 per one condition. […] FIG. 9B: Secreted EFNA5 levels in the medium from 3T3-L1 preadipocytes and adipocytes differentiated for 4d were analyzed by ELISA. FIG. 9C: Basal metabolic rate (heat) was measured in PBS- and EFNA5-injected mice from Table 1, Study 4 by an open circuit indirect calorimetry treadmill. […] Expression was measured by RT-PCR and normalized by 18S.
FIGS. 11A to 11I show adipokine Ereg is bilaterally associated with obesity and thermogenesis and activates PPARα. […] FIG. 11B: Ereg expression was measured in non-differentiated and differentiated (day 5) 3T3-L1 adipocytes (Mann-Whitney test) using a customized NanoString mouse panel. FIG. 11C: Ereg expression was measured in differentiated (day 5) 3T3-L1 and Aldh1a1^−/− adipocytes by Taqman and normalized to TATA box protein (TBP). FIG. 11D: Plasma EREG concentrations were measured in mice from Study 1 by western blot. […] FIG. 11E: Plasma EREG concentrations were measured and quantified in iAb of WT and ob/ob mice from Study 2 by western blot (n=5 per each group). […] FIG. 11F: EREG was measured in iAb, subcutaneous and brown fat by western blot. […] Expression level were measured by Taqman and normalized by TBP. […]
For orientation: Quantitative PCR measures a nucleic acid by following its amplification.

With “EREG: Epiregulin, member of the epidermal growth factor family; recombinant mouse or human protein”, where the note is “10 ng/ml recombinant EREG, FIG. 22”, the “expression of thermogenic gene Pgc1a” value was “increases”. Further, where the note is “recombinant EREG 50 ng/mL, day 5”, the “Ucp1 and Ucp2 expression” value is reported as “induced”.
